The text below walks through data of patent US20230391768A2, “IMIDAZOPYRIDINE DERIVATIVES AND AZA-IMIDAZOPYRIDINE DERIVATIVES AS JANUS KINASE 2 INHIBITORS AND USES THEREOF” (Dana-Farber Cancer Institute, Inc., priority 2018, published 2023).

What is called IC50 is the concentration that inhibits the measured activity by half. Low values mean greater potency in that assay, high ones weaker potency in that assay.

Chain of JAK2 (O60674 whole entry): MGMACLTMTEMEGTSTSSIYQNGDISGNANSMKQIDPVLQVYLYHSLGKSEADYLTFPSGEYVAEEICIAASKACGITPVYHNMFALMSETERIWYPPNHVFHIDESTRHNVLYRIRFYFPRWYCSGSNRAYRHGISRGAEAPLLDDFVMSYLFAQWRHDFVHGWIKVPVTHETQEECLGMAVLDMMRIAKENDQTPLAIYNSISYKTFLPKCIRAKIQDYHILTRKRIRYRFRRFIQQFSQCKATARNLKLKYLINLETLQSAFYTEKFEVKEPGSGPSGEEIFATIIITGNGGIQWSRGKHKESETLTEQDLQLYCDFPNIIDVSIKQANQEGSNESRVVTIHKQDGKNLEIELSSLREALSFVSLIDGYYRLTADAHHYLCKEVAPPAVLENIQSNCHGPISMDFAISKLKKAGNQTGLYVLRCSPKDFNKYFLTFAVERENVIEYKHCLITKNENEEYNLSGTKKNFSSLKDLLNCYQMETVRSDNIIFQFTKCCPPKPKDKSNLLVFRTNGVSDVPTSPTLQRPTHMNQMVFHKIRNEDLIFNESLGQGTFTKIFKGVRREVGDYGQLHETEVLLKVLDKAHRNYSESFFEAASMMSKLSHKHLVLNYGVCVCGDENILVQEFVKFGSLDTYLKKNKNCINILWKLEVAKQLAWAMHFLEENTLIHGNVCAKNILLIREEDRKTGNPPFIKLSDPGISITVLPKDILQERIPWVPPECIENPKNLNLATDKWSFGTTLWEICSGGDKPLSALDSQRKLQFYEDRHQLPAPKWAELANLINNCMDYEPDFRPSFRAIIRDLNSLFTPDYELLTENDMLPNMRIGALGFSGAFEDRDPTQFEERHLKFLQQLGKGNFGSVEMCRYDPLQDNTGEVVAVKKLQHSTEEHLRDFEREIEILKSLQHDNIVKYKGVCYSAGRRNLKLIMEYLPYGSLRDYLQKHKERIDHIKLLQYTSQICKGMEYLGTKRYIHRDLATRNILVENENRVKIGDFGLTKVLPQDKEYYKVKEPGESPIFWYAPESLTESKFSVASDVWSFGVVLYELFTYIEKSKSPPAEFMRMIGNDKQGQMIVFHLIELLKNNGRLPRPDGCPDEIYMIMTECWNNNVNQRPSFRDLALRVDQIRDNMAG

This test concerns the target JAK2 (Homo sapiens (Human), UniProt O60674). Description: JAK2 Z-Lyte biochemical assay. Particulars: commercial JAK2 Z-Lyte assay from Invitrogen. On the procedure:
The JAK2 Z-Lyte biochemical assay was performed according to manufacturer's instructions (Life Technologies).
`CCN1CCN(Cc2cc(NC(=O)c3ccc(C)c(-c4ccc5nc(NC(=O)C6CC6)nn5c4)c3)cc(C(F)(F)F)c2)CC1` [Compound I-1, 3-(2-(cyclopropanecarboxamido)-[1,2,4]triazolo[1,5-a]pyridin-6-yl)-N-(3-((4-ethylpiperazin-1-yl)methyl)-5-(trifluoromethyl)phenyl)-4-methylbenzamide] yielded an IC50 of 508 nM.
Regarding `CCN1CCN(Cc2cc(NC(=O)c3ccc(C)c(-c4ccn5nc(NC(=O)C6CC6)nc5c4)c3)cc(C(F)(F)F)c2)CC1` [Compound I-3, 3-(2-(cyclopropanecarboxamido)-[1,2,4]triazolo[1,5-a]pyridin-7-yl)-N-(3-((4-ethylpiperazin-1-yl)methyl)-5-(trifluoromethyl)phenyl)-4-methylbenzamide], half-maximal inhibition (IC50) was put at 981 nM.
`CCN1CCN(Cc2cc(NC(=O)c3ccc(C)c(-c4cn5cc(NC(=O)C6CC6)nc5cn4)c3)cc(C(F)(F)F)c2)CC1` [Compound I-4, 3-(2-(cyclopropanecarboxamido)imidazo[1,2-a]pyrazin-6-yl)-N-(3-((4-ethylpiperazin-1-yl)methyl)-5-(trifluoromethyl)phenyl)-4-methylbenzamide] yielded an IC50 of 950 nM.
Molecule `CCN1CCN(Cc2cc(NC(=O)c3ccc(C)c(-c4cnc5nc(NC(=O)C6CC6)cn5c4)c3)cc(C(F)(F)F)c2)CC1` [Compound I-5, 3-(2-(cyclopropanecarboxamido)imidazo[1,2-a]pyrimidin-6-yl)-N-(3-((4-ethylpiperazin-1-yl)methyl)-5-(trifluoromethyl)phenyl)-4-methylbenzamide] displayed an IC50 of 9510 nM.
`CCN1CCN(Cc2ccc(NC(=O)c3ccc(C)c(-c4ccc5nc(NC(=O)C6CC6)cn5c4)c3)cc2C(F)(F)F)CC1` [Compound I-7, 3-(2-(cyclopropanecarboxamido)imidazo[1,2-a]pyridin-6-yl)-N-(4-((4-ethylpiperazin-1-yl)methyl)-3-(trifluoromethyl)phenyl)-4-methylbenzamide]: it took 672 nM to reach half-maximal inhibition (IC50).
As for `CCN1CCN(Cc2cc(C(=O)Nc3ccc(C)c(-c4ccc5nc(NC(=O)C6CC6)cn5c4)c3)cc(C(F)(F)F)c2)CC1` [Compound I-8, N-(3-(2-(cyclopropanecarboxamido)imidazo[1,2-a]pyridin-6-yl)-4-methylphenyl)-3-((4-ethylpiperazin-1-yl)methyl)-5-(trifluoromethyl)benzamide], the IC50 was 824 nM.
`Cc1ccc(C(=O)Nc2cc(CN3CCNCC3)cc(C(F)(F)F)c2)cc1-c1ccc2nc(NC(=O)C3CC3)cn2n1` [Compound I-9, 3-(2-(cyclopropanecarboxamido)imidazo[1,2-b]pyridazin-6-yl)-4-methyl-N-(3-(piperazin-1-ylmethyl)-5-(trifluoromethyl)phenyl)benzamide] showed an IC50 of 301 nM.
As for `CC(=O)N1CCN(Cc2cc(NC(=O)c3ccc(C)c(-c4ccc5nc(NC(=O)C6CC6)cn5n4)c3)cc(C(F)(F)F)c2)CC1` [Compound I-10, N-(3-((4-acetylpiperazin-1-yl)methyl)-5-(trifluoromethyl)phenyl)-3-(2-(cyclopropanecarboxamido)imidazo[1,2-b]pyridazin-6-yl)-4-methylbenzamide], the IC50 is 1350 nM.
For `CCS(=O)(=O)N1CCN(Cc2cc(NC(=O)c3ccc(C)c(-c4ccc5nc(NC(=O)C6CC6)cn5n4)c3)cc(C(F)(F)F)c2)CC1` [Compound I-11, 3-(2-(cyclopropanecarboxamido)imidazo[1,2-b]pyridazin-6-yl)-N-(3-((4-(ethylsulfonyl)piperazin-1-yl)methyl)-5-(trifluoromethyl)phenyl)-4-methylbenzamide] the value was 2620 nM; for `COCCN1CCN(Cc2cc(NC(=O)c3ccc(C)c(-c4ccc5nc(NC(=O)C6CC6)cn5n4)c3)cc(C(F)(F)F)c2)CC1` [Compound I-12, 3-(2-(cyclopropanecarboxamido)imidazo[1,2-b]pyridazin-6-yl)-N-(3-((4-(2-methoxyethyl)piperazin-1-yl)methyl)-5-(trifluoromethyl)phenyl)-4-methylbenzamide], 1820 nM.
With `CCOC(=O)N1CCN(Cc2cc(NC(=O)c3ccc(C)c(-c4ccc5nc(NC(=O)C6CC6)cn5n4)c3)cc(C(F)(F)F)c2)CC1` [Compound I-13, ethyl 4-(3-(3-(2-(cyclopropanecarboxamido)imidazo[1,2-b]pyridazin-6-yl)-4-methylbenzamido)-5-(trifluoromethyl)benzyl)piperazine-1-carboxylate], half-maximal inhibition (IC50) was put at 3180 nM.
For `Cc1ccc(C(=O)Nc2cc(CN3CCN(CC4CC4)CC3)cc(C(F)(F)F)c2)cc1-c1ccc2nc(NC(=O)C3CC3)cn2n1` [Compound I-14, 3-(2-(cyclopropanecarboxamido)imidazo[1,2-b]pyridazin-6-yl)-N-(3-((4-(cyclopropylmethyl)piperazin-1-yl)methyl)-5-(trifluoromethyl)phenyl)-4-methylbenzamide], it took 772 nM to reach half-maximal inhibition (IC50).
`CCN1CCN(Cc2ccc(NC(=O)c3ccc(C)c(-c4ccc5nc(NC(=O)C6CC6)cn5n4)c3)cc2C(F)(F)F)CC1` [Compound I-15, 3-(2-(cyclopropanecarboxamido)imidazo[1,2-b]pyridazin-6-yl)-N-(4-((4-ethylpiperazin-1-yl)methyl)-3-(trifluoromethyl)phenyl)-4-methylbenzamide] had an IC50 of 1100 nM.
Molecule `CCN1CCN(Cc2cc(NC(=O)c3cnc(C)c(-c4ccc5nc(NC(=O)C6CC6)cn5n4)c3)cc(C(F)(F)F)c2)CC1` [Compound I-16, 5-(2-(cyclopropanecarboxamido)imidazo[1,2-b]pyridazin-6-yl)-N-(3-((4-ethylpiperazin-1-yl)methyl)-5-(trifluoromethyl)phenyl)-6-methylnicotinamide] registered an IC50 of 486 nM.
The molecule `CCN1CCN(Cc2cc(NC(=O)c3cc(-c4ccc5nc(NC(=O)C6CC6)cn5n4)c(C)cc3F)cc(C(F)(F)F)c2)CC1` [Compound I-17, 5-(2-(cyclopropanecarboxamido)imidazo[1,2-b]pyridazin-6-yl)-N-(3-((4-ethylpiperazin-1-yl)methyl)-5-(trifluoromethyl)phenyl)-2-fluoro-4-methylbenzamide] gave an IC50 of 934 nM.
For the molecule `CCN1CCN(Cc2cc(NC(=O)c3cc(-c4ccc5nc(NC(=O)C6CC6)cn5n4)c(C)cn3)cc(C(F)(F)F)c2)CC1` [Compound I-18, 4-(2-(cyclopropanecarboxamido)imidazo[1,2-b]pyridazin-6-yl)-N-(3-((4-ethylpiperazin-1-yl)methyl)-5-(trifluoromethyl)phenyl)-5-methylpicolinamide], it took 985 nM to reach half-maximal inhibition (IC50).
The molecule `CCN1CCN(Cc2cc(NC(=O)c3cc(-c4ccc5nc(NC(=O)C6CC6)cn5n4)c(C)cc3C)cc(C(F)(F)F)c2)CC1` [Compound I-19, 5-(2-(cyclopropanecarboxamido)imidazo[1,2-b]pyridazin-6-yl)-N-(3-((4-ethylpiperazin-1-yl)methyl)-5-(trifluoromethyl)phenyl)-2,4-dimethylbenzamide] had an IC50 of 8760 nM.
Take `CCc1ccc(C(=O)Nc2cc(CN3CCN(CC)CC3)cc(C(F)(F)F)c2)cc1-c1ccc2nc(NC(=O)C3CC3)cn2n1` [Compound I-20, 3-(2-(cyclopropanecarboxamido)imidazo[1,2-b]pyridazin-6-yl)-4-ethyl-N-(3-((4-ethylpiperazin-1-yl)methyl)-5-(trifluoromethyl)phenyl)benzamide]: the IC50 was 399 nM.
The molecule `CCN1CCN(Cc2cc(NC(=O)c3cc(-c4ccc5nc(NC(=O)C6CC6)cn5n4)c(C)nc3O)cc(C(F)(F)F)c2)CC1` [Compound I-21, 5-(2-(cyclopropanecarboxamido)imidazo[1,2-b]pyridazin-6-yl)-N-(3-((4-ethylpiperazin-1-yl)methyl)-5-(trifluoromethyl)phenyl)-2-hydroxy-6-methylnicotinamide] displayed an IC50 above 10000 nM.
The same measure for `CCN1CCN(Cc2cc(NC(=O)c3ccc(C(F)(F)F)c(-c4ccc5nc(NC(=O)C6CC6)cn5n4)c3)cc(C(F)(F)F)c2)CC1` [Compound I-22, 3-(2-(cyclopropanecarboxamido)imidazo[1,2-b]pyridazin-6-yl)-N-(3-((4-ethylpiperazin-1-yl)methyl)-5-(trifluoromethyl)phenyl)-4-(trifluoromethyl)benzamide]: 1900 nM; for `CCN1CCN(Cc2cc(NC(=O)c3ccc(C#N)c(-c4ccc5nc(NC(=O)C6CC6)cn5n4)c3)cc(C(F)(F)F)c2)CC1` [Compound I-23, 4-cyano-3-(2-(cyclopropanecarboxamido)imidazo[1,2-b]pyridazin-6-yl)-N-(3-((4-ethylpiperazin-1-yl)methyl)-5-(trifluoromethyl)phenyl)benzamide]: 5120 nM.
For the molecule `CCN1CCN(Cc2cc(NC(=O)c3ccc(C)c(-c4ccc5nc(N)cn5n4)c3)cc(C(F)(F)F)c2)CC1` [Compound I-24, 3-(2-aminoimidazo [1,2-b]pyridazin-6-yl)-N-(3-((4-ethylpiperazin-1-yl)methyl)-5-(trifluoromethyl)phenyl)-4-methylbenzamide], the IC50 was above 3330 nM.
Regarding `CCN1CCN(Cc2cc(NC(=O)c3ccc(C)c(-c4ccc5nc(NC(=O)C6CC6)n(C)c5c4)c3)cc(C(F)(F)F)c2)CC1` [Compound I-25, 3-(2-(cyclopropanecarboxamido)-1-methyl-1H-benzo[d]imidazol-6-yl)-N-(3-((4-ethylpiperazin-1-yl)methyl)-5-(trifluoromethyl)phenyl)-4-methylbenzamide], the IC50 is 7020 nM.
Molecule `CCN1CCN(Cc2cc(NC(=O)c3ccc(C)c(-c4ccc5c(c4)nc(NC(=O)C4CC4)n5C)c3)cc(C(F)(F)F)c2)CC1` [Compound I-26, 3-(2-(cyclopropanecarboxamido)-1-methyl-1H-benzo[d]imidazol-5-yl)-N-(3-((4-ethylpiperazin-1-yl)methyl)-5-(trifluoromethyl)phenyl)-4-methylbenzamide] came in with an IC50 above 10000 nM.
Molecule `CCN1CCN(Cc2cc(NC(=O)c3ccc(C)c(-c4ccc5[nH]c(NC(=O)C6CC6)nc5n4)c3)cc(C(F)(F)F)c2)CC1` [Compound I-27, 3-(2-(cyclopropanecarboxamido)-1H-imidazo[4,5-b]pyridin-5-yl)-N-(3-((4-ethylpiperazin-1-yl)methyl)-5-(trifluoromethyl)phenyl)-4-methylbenzamide] gave an IC50 of 1530 nM.
